Measurements: paper PMC9489722, “Identification and development of a subtype-selective allosteric AKT inhibitor suitable for clinical development” (Scientific Reports, 2022)
Like-named read-outs stand apart in the source and are kept apart here. Each block holds one molecule with its values, some of them ahead of it.

What was measured:
Kinetic solubility assay = format: physicochemical; conditions: PBS pH 7.4, read-out: Kinetic solubility pH7.4
Experimental: Compound solubility was tested in Dulbecco A PBS buffer at pH7.4 in Millipore MultiScreen Solubility Filter plates. Analysis was carried out on a Bioteck Synergy 4 plate reader (240–400 nm) and solubility quantified against a 5-point calibration curve.

LogD7.4 assay = format: physicochemical; conditions: octanol/PBS buffer; octanol/PBS pH 7.4
Experimental: Compounds (100 µM) were shaken at 300 rpm at room temperature for 4 h in a biphasic system of octanol and PBS buffer pH 7.4 in a 96-well plate in triplicate. The relative drug concentration in each phase was then determined by the peak area measurement from LC-UV analysis on an Agilent 1260 chromatography instrument (UV detection at 254 nm and 220 nm). LogD is calculated as follows: LogD = Log[peak area of compound in octanol x injection volume of buffer phase/peak area of compound in buffer x injection volume of octanol phase].

[1] = In vitro proliferation assay (CellTiter-Glo), normal cell lines; format: cell-based; conditions: human, normal cell lines (4 of the 6 tested; lines not named); 4 of the 6 normal cell lines tested; read-out: cytotoxicity EC50, normal cell lines
Experimental: MCF-7, T47D, NCI-H460, HCT116, LNCaP, A431, PC3, PANC-1, A549, HT29M, SKOV-3, Du145, HMEC-1, Hs888Lu, Hela, MDA-MB-231 and SW480 cells were obtained from American Type Culture Collection (ATCC). A2780, PNT2, U251MG, HFFF2 and Fr2 cells were obtained from Public Health England European Collection of Authenticated Cell Cultures (Phe ECACC). InMyoFib and NHLF cells were acquired from Lonza. Cells were then incubated with increasing concentration of inhibitor (1 nM to 100 µM) for 72 h at 37 °C. Cell viability was determined using the CellTiter-Glo Luminescent Cell Viability Assay (Promega). IC50 values were derived as previously stated.

[2] = Pharmacokinetic study in Sprague–Dawley rats; format: in vivo, rat; conditions: male SD rats
Experimental: Eight rats were purchased and 6 used on the PK study (3 per administration route). The remaining rats were purchased in case of mis-dosing events and were used to obtain blank biological matrix. Compounds were administered as single i.v. doses at 1 mg free base/kg or single oral doses at 5 mg free base/kg, with blood samples obtained from three rats per dose route, at 9 time-points out to 24 h post-dose. Both the intravenous and oral doses were prepared at a concentration of 1 mg free base/mL in a mixture of 5% DMSO/95% saline. Blood samples were centrifuged to give plasma. Plasma proteins were precipitated, and compounds extracted by addition of six volumes of acetonitrile containing warfarin as internal standard. Samples were centrifuged at 4000 rpm for 30 min and the supernatants were analysed on a Waters Xevo TQ mass spectrometer. Multiple Reaction Monitoring (MRM) methods were developed for each test compound using Waters IntelliStart software.
Quantification of test compounds was by extrapolation from calibration lines prepared in control rat plasma and analysed concurrently with experimental samples.
Non-compartmental analysis was performed using the software package PK Solutions 2.0 from Summit Research Services to produce the PK parameters. AUC values were calculated by the trapezoidal method.
Oral bioavailability was estimated by comparison of the drug concentration/time AUCs for individual animals after oral dosing with the mean AUC from i.v. doses.

CYP 2C9 = CYP 2C9 (Homo sapiens, UniProt P11712); experiment: CYP2C9 inhibition; format: in vitro ADME
[3] = test system: pAKT (Ser473) in MCF-7 cells; experiment: phospho-AKT (S473) ELISA in MCF-7 cells; format: cell-based; conditions: Homo sapiens, MCF7, 24h treatment, read-out: EC50 inhibition of phosphorylation of AKT
Experimental: (§1) Cells were then washed with PBS and lysed. The subsequent supernatant was assayed using a GSK3β (pS9) (Invitrogen, Life Technologies) ELISA. Phospho-AKT levels were detected using the phospho-AKT (S473) immunoassay (R&D Systems) as per manufacturer’s protocol. Percentage inhibition of phosphorylation status was calculated by comparing phospho-AKT levels to total AKT levels with each treatment and IC50 values derived using non-linear regression on GraphPad Prism.

[4] = test system: pAKT^S473 in A549 tumours; experiment: PK/PD study in A549 lung cancer xenograft model; format: in vivo, mouse; conditions: single oral dose 100 mg/kg, 24-h time period, A549 xenograft
Experimental: In order to understand the relationship between ALM301 plasma exposure and in vivo AKT target engagement over time, a PK/PD study was carried out in a A549 lung cancer xenograft model. […] ALM301 plasma concentrations and levels of pAKT^S473 in tumours were measured using western blotting and immunohistochemistry (Fig. 4A, B and Supplementary Fig. S4A–C). […] Tumour sections were collected following one dose of either vehicle or 30 mg/kg of ALM301 at noted time intervals (1 h, 2 h, 4 h, 8 h, 24 h). Tissue sections were subsequently stained with pAKT antibody (brown) staining and scored for pAKT staining using a scale of 1–4 (low to high) (Fig. 4B).
For pharmacokinetic/pharmacodynamic (PK/PD) studies in A549 lung cancer xenografts, 150 male BALB/c nude mice aged 6–8 weeks and weighing approximately 18–22 g were inoculated with 1 × 10^7 A549 tumour cells (ATCC) in 0.1 mL of PBS with Matrigel (1:1) subcutaneously into the right flank. Once the mean tumour size reached 150–250 mm^3, the mice were randomised into treatment groups (18 mice per group) using a randomised block design (first, experimental animals are divided into homogeneous blocks according to their initial tumour volume; secondly, within each block, randomisation of animals to treatment groups was conducted so that each animal had the same probability of being assigned to a given treatment, thereby reducing systematic bias). Group sizes were devised based on previous pilot studies using a minimal numbers approach of n = 3 tumours per time-point (6 time-points per dose level). […] Tumour size was measured twice weekly in two dimensions using a caliper, and the volume expressed in mm^3 using the formula: V = 0.5 (a × b^2), where a and b are the long and short diameters of the tumour, respectively.

[5] = test system: pGSK3β in PC3 prostate cancer cells; experiment: pGSK3β ELISA in PC3 cells; format: cell-based; conditions: for IC50: Homo sapiens, PC-3, PC3 cells, 24 h
Experimental: as §1

[6] = In vitro microsomal stability, human; format: in vitro ADME; conditions: pH 7.4; human liver microsomes; read-out: human LM CLint
Experimental: (§2) Compounds (final concentration = 1 µM; final DMSO concentration = 0.1%) were incubated in 0.1 M phosphate buffer at pH 7.4 with liver microsomes (human, mouse, rat or dog; 0.5 mg of protein/mL) at 37 °C. Reactions were started by addition of NADPH in 0.1 M phosphate buffer pH 7.4 (final concentration 1 mM). Reactions were quenched by addition of ice-cold methanol and frozen. The supernatants were analysed by LC/MS/MS on a Waters Acquity I-Class coupled to a Waters Xevo TQD mass spectrometer. A Waters BEH C18 2.1 × 50 mm 1.7 µm column was used and mobile phases consisted of water and methanol containing 0.1% formic acid as modifier. Analysis was by multiple reaction monitoring and conditions were optimised for each test compound.

[7] = In vitro microsomal stability, rat; format: in vitro ADME; conditions: pH 7.4; rat liver microsomes; read-out: rat LM CLint
Experimental: as §2

AKT3 = target: T1, AKT3 (Homo sapiens, UniProt Q9Y243); experiment: AKT3 biochemical kinase assay (FP iMAP); conditions: read-out: AKT IC50, AKT3
T1 construct: purchased Signal Chem
Experimental: (§3) Biochemical analysis was performed using kinases obtained from Millipore (AKT1, ∆AKT1, ∆AKT2, ∆AKT3) and Signal Chem (AKT2 and AKT3). […] (Molecular Devices) against the three isoforms of AKT and their PH domain null mutants. Compounds were dissolved in DMSO prior to screening at 14 point titration series in the range (50 µM–50 pM). Fluorescence polarisation was measured using a Biotek Synergy 4 Hybrid microplate reader. Percentage inhibition of kinase activity was calculated and IC50 values derived using non-linear regression on GraphPad Prism. Competition of ALM301 with ATP was determined using AKT1 under increasing ATP concentrations up to 1000 µM.

AKT1 = target: T2, AKT1 (Homo sapiens, UniProt P31749); experiment: AKT1 biochemical kinase assay (FP iMAP); conditions: for IC50: read-out: AKT IC50, AKT1
T2 construct: purchased Millipore
Experimental: as §3

AKT2 = target: T3, AKT2 (Homo sapiens, UniProt P31751); experiment: AKT2 biochemical kinase assay (FP iMAP); conditions: read-out: AKT IC50, AKT2
T3 construct: purchased Signal Chem
Experimental: as §3

MCF-7 cells = conditions: ALM301 in combination with Tamoxifen
Experimental: A synergy screen, using ALM301 and combination partners in a matrix design, was conducted to identify compounds which are synergistic in combination with ALM301. Synergy was calculated using the median concentration effect method using Calcusyn software as previously described.

MCF-7 xenografts = experiment: Efficacy study in MCF-7 breast cancer xenograft model; format: in vivo; conditions: MCF-7 xenograft, tamoxifen alone 5 mg/kg q.d. p.o.
Experimental: For efficacy in MCF-7 xenografts, 150 SCID female mice aged 6–8 weeks and weighing approximately 18–22 g were implanted with 1 × 10^7 MCF-7 tumour cells (ATCC) subcutaneously in the right flank. […] Once mean tumour size reached approximately 150 mm^3, mice were randomised to either control or treatment groups (n = 10/group) using a randomised block approach. Groups sizes were devised based on past experience of the provider. […] Tumour size was measured twice weekly in two dimensions using a caliper, and the volume expressed in mm^3 using the formula: V = 0.5 (a x b^2), where a and b are the long and short diameters of the tumour, respectively.

[8] = PBS buffer, pH 7.4, aqueous buffer, kinetic from dmso stock

T2 sequence (P31749 whole entry): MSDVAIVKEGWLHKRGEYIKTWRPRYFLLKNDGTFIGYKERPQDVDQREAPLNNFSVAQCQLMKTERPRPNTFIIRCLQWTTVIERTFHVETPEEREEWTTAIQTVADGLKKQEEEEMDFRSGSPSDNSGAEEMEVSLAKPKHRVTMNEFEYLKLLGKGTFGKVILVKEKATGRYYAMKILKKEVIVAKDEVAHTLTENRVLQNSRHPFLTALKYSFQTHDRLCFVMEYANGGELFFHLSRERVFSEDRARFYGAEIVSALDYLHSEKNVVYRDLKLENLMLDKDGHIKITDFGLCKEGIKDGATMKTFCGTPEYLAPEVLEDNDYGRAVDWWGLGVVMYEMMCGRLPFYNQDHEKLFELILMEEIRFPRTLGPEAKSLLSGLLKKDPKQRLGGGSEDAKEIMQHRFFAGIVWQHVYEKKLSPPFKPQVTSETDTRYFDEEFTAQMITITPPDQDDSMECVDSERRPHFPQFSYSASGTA
T3 sequence (P31751 whole entry): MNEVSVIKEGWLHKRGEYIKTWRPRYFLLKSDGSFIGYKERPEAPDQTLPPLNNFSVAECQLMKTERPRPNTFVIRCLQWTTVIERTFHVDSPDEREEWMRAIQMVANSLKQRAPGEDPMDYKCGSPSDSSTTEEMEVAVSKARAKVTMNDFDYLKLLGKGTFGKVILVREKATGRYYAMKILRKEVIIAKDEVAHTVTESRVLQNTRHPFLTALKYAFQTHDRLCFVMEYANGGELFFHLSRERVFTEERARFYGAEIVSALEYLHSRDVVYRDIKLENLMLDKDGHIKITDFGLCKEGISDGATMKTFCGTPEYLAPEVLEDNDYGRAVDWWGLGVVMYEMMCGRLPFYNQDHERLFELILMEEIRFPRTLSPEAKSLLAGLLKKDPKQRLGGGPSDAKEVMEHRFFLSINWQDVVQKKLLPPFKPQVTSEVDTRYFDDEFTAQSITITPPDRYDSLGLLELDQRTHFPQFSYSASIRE
T1 sequence (Q9Y243 whole entry): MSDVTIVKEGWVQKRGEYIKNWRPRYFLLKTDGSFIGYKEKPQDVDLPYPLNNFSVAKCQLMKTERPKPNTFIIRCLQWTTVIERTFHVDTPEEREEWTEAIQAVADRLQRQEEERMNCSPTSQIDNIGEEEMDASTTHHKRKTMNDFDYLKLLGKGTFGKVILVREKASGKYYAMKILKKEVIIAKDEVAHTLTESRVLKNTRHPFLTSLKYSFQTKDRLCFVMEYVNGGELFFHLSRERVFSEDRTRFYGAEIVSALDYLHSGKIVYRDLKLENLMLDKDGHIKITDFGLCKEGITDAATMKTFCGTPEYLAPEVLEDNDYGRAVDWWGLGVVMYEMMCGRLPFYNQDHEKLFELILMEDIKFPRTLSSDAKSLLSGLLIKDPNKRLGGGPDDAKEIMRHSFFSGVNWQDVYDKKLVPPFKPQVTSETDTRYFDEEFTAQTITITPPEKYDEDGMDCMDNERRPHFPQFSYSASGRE
Chain of CYP 2C9 (P11712 whole entry): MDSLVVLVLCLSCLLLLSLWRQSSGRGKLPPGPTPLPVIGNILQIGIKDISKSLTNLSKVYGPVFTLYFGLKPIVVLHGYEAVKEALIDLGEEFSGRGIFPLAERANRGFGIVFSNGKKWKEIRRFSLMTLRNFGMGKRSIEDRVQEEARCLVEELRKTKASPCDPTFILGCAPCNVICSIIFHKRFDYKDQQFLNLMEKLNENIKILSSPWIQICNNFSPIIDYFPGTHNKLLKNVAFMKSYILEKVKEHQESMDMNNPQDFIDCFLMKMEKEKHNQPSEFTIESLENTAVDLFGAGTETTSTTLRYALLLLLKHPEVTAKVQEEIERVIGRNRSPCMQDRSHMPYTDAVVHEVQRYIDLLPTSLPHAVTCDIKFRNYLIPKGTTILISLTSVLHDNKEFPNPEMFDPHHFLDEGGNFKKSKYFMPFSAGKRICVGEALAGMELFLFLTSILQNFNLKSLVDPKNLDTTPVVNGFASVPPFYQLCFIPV

SMILES: NC1(c2ccc(-c3nc4ccn5c(=O)[nH]nc5c4cc3-c3ccccc3)cc2)CCC1 [MK-2206, reference compound]
solubility kinetic (Kinetic solubility assay; [8]): 190 µM
logD at 4 h (LogD7.4 assay): 2.4
EC50 at 72 h [1]: < 20000 nM
clearance ([2]; Sprague-Dawley, rat, plasma, iv, 1 mg/kg i.v., read-out: Rat PK CL): 24 mL/min/kg
Vd ([2]; Sprague-Dawley, rat, plasma, iv, 1 mg/kg i.v., read-out: Rat PK Vd): 12 L/kg
Rat PK F ([2]; 1 mg/kg i.v. and 5 mg/kg p.o., AUC 0-∞): 12%
IC50 (CYP 2C9): 19000 nM
EC50 [3]: 2550 nM
pAKT^S473 in tumours [4]: incomplete inhibition
IC50 [5]: 120 nM
microsomal CLint at 1 µM [6]: 20 µL/min/mg
microsomal CLint at 1 µM [7]: 13 µL/min/mg

IC50 (AKT3): 6100 nM
solubility kinetic (Kinetic solubility assay; [8]): 206 µM
IC50 [5]: 3000 nM
AKT1 ligand efficiency (LE) (AKT1): 0.28
IC50 (AKT1): 2500 nM
IC50 (AKT2): 3300 nM
SMILES: NC1(c2ccc(-c3nc4c(cc3-c3ccccc3)NC(=O)CO4)cc2)CCC1 [compound 1]

IC50 (AKT3): 5600 nM
solubility kinetic (Kinetic solubility assay; [8]): > 190 µM
solubility kinetic (Kinetic solubility assay): 191 µM
IC50 [5]: 100 nM
AKT1 ligand efficiency (LE) (AKT1): 0.34
IC50 (AKT1): 100 nM
IC50 (AKT2): 400 nM
SMILES: CN1C(=O)COc2nc(-c3ccc(C4(N)CCC4)cc3)c(-c3ccccc3)cc21 [compound 2]
potency improvement in pGSK3β decrease compared with des-N-methyl analogue 1 ([5]; PC3 prostate cancer cells): ca. 30 fold

SMILES: CC/C(=C(\c1ccccc1)c1ccc(OCCN(C)C)cc1)c1ccccc1 [tamoxifen]
combination effect at ED50 (MCF-7 cells): Synergy
combination effect at ED75 (MCF-7 cells): Synergy
combination effect at ED90 (MCF-7 cells): Strong Synergy
tumour regression (MCF-7 xenografts): 24%
